Patent US20060069132A1, “Azolecarboxamide herbicides” (priority 2004, published 2006)
Like-named read-outs stand apart in the source and are kept apart here.

Experiments:
[1] = test system: wheat; assay: Test B postemergence herbicide test; type: in vivo, Triticum aestivum; set-up: key to Wheat plant response rating: 0 = no effect, 100 = complete control
Procedure, shortened: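 Treated at 2-leaf (paddy) or 1–4-leaf, 2–18 cm (postemergence); greenhouse 13–15 d; visual score vs control, 0 none to 100 complete control; dash = not tested.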

[2] = test system: barnyardgrass; assay: Test B flooded paddy test; type: in vivo, Echinochloa crus-galli; settings: 1000 g ai/ha, scale 0 to 100 (0 no effect, 100 complete control); for pest or weed control at 1000 g/ha: Echinochloa crus-galli, 336 h, visual rating, 13 to 15 days, read-out: Barnyardgrass plant response rating
Procedure, shortened: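 After treating 2-leaf paddy plants or 2–18 cm postemergence plants (1 to 4 leaves) with formulated chemical, researchers kept them in a greenhouse for 13–15 days. Effects were judged visually versus controls: 0 indicates none, 100 total control.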

[3] = test system: large crabgrass; assay: Test C pre-/postemergence herbicide test; type: in vivo, Digitaria sanguinalis; settings: for pest or weed control at 62 g/ha / Plant response rating, Crabgrass, Large / Plant response rating (0 = no effect, 100 = complete control), Crabgrass, Large: preemergence; for pest or weed control at 125 g/ha / Plant response rating (0 = no effect, 100 = complete control), Crabgrass, Large: 125 g ai/ha; for pest or weed control at 125 g/ha: scale 0 (no effect) to 100 (complete control)
Procedure, shortened: (§1)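 Visual ratings on a 0–100 scale (100 = complete control) made versus untreated controls after 12 to 14 greenhouse days. Test chemicals, formulated in surfactant-containing non-phytotoxic solvent, applied preemergence to planted seeds or postemergence to 1- to 4-leaf plants (2 to 18 cm).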

[4] = test system: woolly cupgrass; assay: Test C pre-/postemergence herbicide test; type: in vivo, Eriochloa villosa; settings: for pest or weed control at 62 g/ha / Plant response rating, Cupgrass, Woolly / Plant response rating (0 = no effect, 100 = complete control), Cupgrass, Woolly: preemergence; for pest or weed control at 125 g/ha / Plant response rating (0 = no effect, 100 = complete control), Cupgrass, Woolly: 125 g ai/ha; for pest or weed control at 125 g/ha: scale 0 (no effect) to 100 (complete control)
Procedure, shortened: as §1

[5] = test system: eastern black nightshade; assay: Test C pre-/postemergence herbicide test; type: in vivo, Solanum ptycanthum; settings: for pest or weed control at 62 g/ha / Plant response rating, Nightshade / Plant response rating (0 = no effect, 100 = complete control), Nightshade: preemergence; for pest or weed control at 125 g/ha / Plant response rating (0 = no effect, 100 = complete control), Nightshade: 125 g ai/ha; for pest or weed control at 125 g/ha: scale 0 (no effect) to 100 (complete control)
Source text: Seeds of plant species selected from bermudagrass (Cynodon dactylon (L.) Pers.), Surinam grass (Urochloa decumbens (Staph) R. D. Webster, previously named Brachiaria decumbens Stapf), cocklebur (Xanthium strumarium L.), corn (Zea mays L.), large crabgrass (Digitaria sanguinalis (L.) Scop.), woolly cupgrass (Eriochloa villosa (Thunb.) Kunth), giant foxtail (Setaria faberi Herrm.), goosegrass (Eleusine indica (L.) Gaertn.), johnsongrass (Sorghum halepense (L.) Pers.), kochia (Kochia scoparia (L.) Schrad.), lambsquarters (Chenopodium album L.), morningglory (Ipomoea coccinea L.), eastern black nightshade (Solanum ptycanthum Dunal), yellow nutsedge (Cyperus esculentus L.), pigweed (Amaranthus retroflexus L.), common ragweed (Ambrosia elatior L.), soybean (Glycine max (L.) Merr.), common (oilseed) sunflower (Helianthus annuus L.) and velvetleaf (Abutilon theophrasti Medik.) were planted and treated preemergence with test chemicals formulated in a non-phytotoxic solvent mixture which included a surfactant.
At the same time, plants selected from these crop and weed species and also winter barley (Hordeum vulgare L.), blackgrass (Alopecurus myosuroides Huds.), canarygrass (Phalaris minor Retz.), chickweed (Stellaria media (L.) Vill.), downy bromegrass (Bromus tectorum L.), green foxtail (Setaria viridis (L.) Beauv.), Italian ryegrass (Lolium multiflorum Lam.), wheat (Triticum aestivum L.), wild oat (Avenafatua L.) and windgrass (Apera spica-venti (L.) Beauv.) were treated with postemergence applications of some of the test chemicals formulated in the same manner. Plants ranged in height from 2 to 18 cm (1- to 4-leaf stage) for postemergence treatments. Plant species in the flooded paddy test consisted of rice (Oryza sativa), smallflower umbrella sedge (Cyperus difformis L.), ducksalad (Heteranthera limosa (Sw.) Willd.) and barnyardgrass (Echinochloa crus-galli (L.) Beauv.) grown to the 2-leaf stage for testing. Treated plants and controls were maintained in a greenhouse for 12 to 14 days, after which time all species were compared to controls and visually evaluated. Plant response ratings, summarized in Table C, are based on a scale of 0 to 100 where 0 is no effect and 100 is complete control. A dash (-) response means no test result.

[6] = test system: yellow nutsedge; assay: Test C pre-/postemergence herbicide test; type: in vivo, Cyperus esculentus; settings: for pest or weed control at 62 g/ha / Plant response rating, Nutsedge, Yellow / Plant response rating (0 = no effect, 100 = complete control), Nutsedge, Yellow: preemergence; for pest or weed control at 125 g/ha / Plant response rating (0 = no effect, 100 = complete control), Nutsedge, Yellow: 125 g ai/ha; for pest or weed control at 125 g/ha: scale 0 (no effect) to 100 (complete control)
Procedure, shortened: as §1

[7] = Triticum aestivum, post-emergence, 336 h, postemergence, 500 g ai/ha, visual rating, scale 0 (no effect) to 100 (complete control), read-out: Wheat plant response rating
[8] = Digitaria sanguinalis, pre-emergence, 312 h, 62 g ai/ha, scale 0 to 100, read-out: Plant response rating, Crabgrass, Large
[9] = Digitaria sanguinalis, pre-emergence, 312 h, visual, 12 to 14 days, read-out: Plant response rating, Crabgrass, Large
[10] = Preemergence, 500 g ai/ha, scale 0 to 100, 0 no effect, 100 complete control
[11] = Eriochloa villosa, pre-emergence, 312 h, 62 g ai/ha, scale 0 to 100, read-out: Plant response rating, Cupgrass, Woolly
[12] = Eriochloa villosa, pre-emergence, 312 h, visual, 12 to 14 days, read-out: Plant response rating, Cupgrass, Woolly
[13] = pre-emergence, 62 g ai/ha, scale 0 to 100, read-out: Plant response rating, Nightshade
[14] = pre-emergence, visual, 12 to 14 days, read-out: Plant response rating, Nightshade
[15] = Cyperus, pre-emergence, 62 g ai/ha, scale 0 to 100, read-out: Plant response rating, Nutsedge, Yellow
[16] = Cyperus, pre-emergence, visual, 12 to 14 days, read-out: Plant response rating, Nutsedge, Yellow
[17] = 500 g ai/ha, scale 0 to 100, 0 no effect, 100 complete control, preemergence
[18] = Postemergence, 500 g ai/ha, scale 0 (no effect) to 100 (complete control)
[19] = postemergence, 125 g ai/ha, scale 0 to 100
[20] = 500 g ai/ha, scale 0 to 100 (0 no effect, 100 complete control), visual, 12 to 14 days

Compound	plant injury at 500 g/ha [1, 7]	pest or weed control at 1000 g/ha [2]	pest or weed control at 62 g/ha [3, 8]	pest or weed control at 125 g/ha [3, 9]	pest or weed control at 62 g/ha [4, 11]	pest or weed control at 125 g/ha [4, 12]	pest or weed control at 62 g/ha [5, 13]	pest or weed control at 125 g/ha [5, 14]	pest or weed control at 62 g/ha [6, 15]	pest or weed control at 125 g/ha [6, 16]	Wheat plant response rating [1, 17]	Wheat plant response rating [1, 18]	Wheat plant response rating [1, 19]	Barnyardgrass plant response rating [2]	Plant response rating, Crabgrass, Large ([3]; 62 g ai/ha, scale 0 to 100)	Plant response rating (0 = no effect, 100 = complete control), Crabgrass, Large [3]	Plant response rating, Crabgrass, Large ([3]; 250 g ai/ha, scale 0-100)	Plant response rating, Crabgrass, Large [3, 20]	Plant response rating, Cupgrass, Woolly ([4]; 62 g ai/ha, scale 0 to 100)	Plant response rating (0 = no effect, 100 = complete control), Cupgrass, Woolly [4]	further results
CCn1nc(C(C)(C)C)cc1C(=O)Nc1cc(C(=O)N(C)C)ccn1 [Compound 156, 2-[[[3-(1,1-dimethylethyl)-1-ethyl-1H-pyrazol-5-yl]carbonyl]amino]-N,N-dimethyl-4-pyridinecarboxamide]	20%	100%	60%	85%	33%	70%	75%	93%	35%	60%	–	–	–	–	–	–	–	–	–	–	pest or weed control at 250 g/ha ([3]; Digitaria sanguinalis, pre-emergence, 312 h, 250 g ai/ha, scale 0 to 100 (0 no effect, 100 complete control), visual, 12 to 14 days, read-out: Plant response rating, Crabgrass, Large): 90%; Crabgrass, Large plant response rating [3, 10]: 100; pest or weed control at 250 g/ha ([4]; Eriochloa villosa, pre-emergence, 312 h, 250 g ai/ha, scale 0 to 100 (0 no effect, 100 complete control), visual, 12 to 14 days, read-out: Plant response rating, Cupgrass, Woolly): 80%; Cupgrass, Woolly plant response rating [4, 10]: 90; Nightshade plant response rating [5, 10]: 100; Nutsedge, Yellow plant response rating [6, 10]: 85
CCNC(=O)c1cccc(NC(=O)c2nn(C(C)(C)C)cc2Br)c1 [Compound 221, 4-bromo-1-(1,1-dimethylethyl)-N-[3-[(ethylamino)carbonyl]phenyl]-1H-pyrazole-3-carboxamide]	10%	40%	0%	100%	0%	0%	30%	50%	0%	0%	–	–	–	–	–	–	–	–	–	–	plant injury at 125 g/ha ([1]; Triticum aestivum, post-emergence, 336 h, postemergence, 125 g ai/ha, visual rating, scale 0 (no effect) to 100 (complete control), read-out: Wheat plant response rating): 0%; pest or weed control at 250 g/ha ([3]; Digitaria sanguinalis, pre-emergence, 312 h, 250 g ai/ha, scale 0-100, read-out: Plant response rating, Crabgrass, Large): 100%; pest or weed control at 500 g/ha ([3]; Digitaria sanguinalis, pre-emergence, 312 h, 500 g ai/ha, scale 0 to 100 (0 no effect, 100 complete control), visual, 12 to 14 days, read-out: Plant response rating, Crabgrass, Large): 100%; pest or weed control at 250 g/ha ([4]; Eriochloa villosa, pre-emergence, 312 h, 250 g ai/ha, scale 0-100, read-out: Plant response rating, Cupgrass, Woolly): 0%; pest or weed control at 500 g/ha ([4]; Eriochloa villosa, pre-emergence, 312 h, 500 g ai/ha, scale 0 to 100 (0 no effect, 100 complete control), visual, 12 to 14 days, read-out: Plant response rating, Cupgrass, Woolly): 10%; pest or weed control at 250 g/ha ([5]; pre-emergence, 250 g ai/ha, scale 0-100, read-out: Plant response rating, Nightshade): 70%; pest or weed control at 500 g/ha ([5]; pre-emergence, 500 g ai/ha, scale 0 to 100 (0 no effect, 100 complete control), visual, 12 to 14 days, read-out: Plant response rating, Nightshade): 100%; pest or weed control at 250 g/ha ([6]; Cyperus, pre-emergence, 250 g ai/ha, scale 0-100, read-out: Plant response rating, Nutsedge, Yellow): 0%; pest or weed control at 500 g/ha ([6]; Cyperus, pre-emergence, 500 g ai/ha, scale 0 to 100 (0 no effect, 100 complete control), visual, 12 to 14 days, read-out: Plant response rating, Nutsedge, Yellow): 0%
Cc1nn(C(C)(C)C)nc1C(=O)Nc1cccc(C(=S)N(C)C)c1 [Compound 419]	–	–	–	–	–	–	–	–	–	–	100	20	10	90	100	100	100	100	0	15	Plant response rating, Cupgrass, Woolly ([4]; 250 g ai/ha, scale 0-100): 45; Plant response rating, Cupgrass, Woolly [4, 20]: 65; Plant response rating, Nightshade ([5]; 62 g ai/ha, scale 0 to 100): 85; Plant response rating (0 = no effect, 100 = complete control), Nightshade [5]: 95; Plant response rating, Nightshade [5, 20]: 100; Plant response rating, Nutsedge, Yellow ([6]; 62 g ai/ha, scale 0 to 100): 0; Plant response rating (0 = no effect, 100 = complete control), Nutsedge, Yellow [6]: 0; Plant response rating, Nutsedge, Yellow [6, 20]: 0
CCNC(=S)c1cccc(NC(=O)c2nn(C(C)(C)C)nc2C)c1 [Compound 420]	–	–	–	–	–	–	–	–	–	–	100	20	10	90	100	100	100	100	0	10	Plant response rating, Cupgrass, Woolly ([4]; 250 g ai/ha, scale 0-100): 20; Plant response rating, Cupgrass, Woolly [4, 20]: 65; Plant response rating, Nightshade ([5]; 62 g ai/ha, scale 0 to 100): 80; Plant response rating (0 = no effect, 100 = complete control), Nightshade [5]: 90; Plant response rating, Nightshade [5, 20]: 100; Plant response rating, Nutsedge, Yellow ([6]; 62 g ai/ha, scale 0 to 100): 0; Plant response rating (0 = no effect, 100 = complete control), Nutsedge, Yellow [6]: 0; Plant response rating, Nutsedge, Yellow [6, 20]: 25
